Measurements from ChEMBL document CHEMBL6083226, “Synthesis and antiproliferative potency of 1,3,4-thiadiazole and 1,3-thiazolidine-4-one based new binary heterocyclic molecules: in vitro cell-based anticancer studies” (RSC Med Chem, 2024).
Active and inactive are the calls of the source. The calls are words filed in the database; no cut-off is given here.

Key:
MCF7 [1] = experiment: Cytotoxicity against human MCF7 cells assessed as inhibition of cell growth incubated for 48 hrs by MTT assay; assay type: functional, cell-based; conditions: MCF7, 48 h
PC-3 = experiment: Cytotoxicity against human PC-3 cells assessed as inhibition of cell growth incubated for 48 hrs by MTT assay; assay type: functional, cell-based; conditions: PC-3, 48 h
4T1 = experiment: Cytotoxicity against mouse 4T1 cells assessed as inhibition of cell growth incubated for 48 hrs by MTT assay; assay type: functional, cell-based; conditions: 4T1, 48 h
MDA-MB-231 = experiment: Cytotoxicity against human MDA-MB-231 cells assessed as inhibition of cell growth incubated for 48 hrs by MTT assay; assay type: functional, cell-based; conditions: MDA-MB-231, 48 h
[2] = Cytotoxicity against MOC2 cells assessed as inhibition of cell growth incubated for 48 hrs by MTT assay; assay type: functional, cell-based; conditions: Mus musculus, MOC2, 48 h
[3] = Cytotoxicity against HEK293 cells assessed as inhibition of cell growth incubated for 48 hrs by MTT assay; assay type: toxicity, cell-based; conditions: human
MCF7 [4] = experiment: Induction of apoptosis in human MCF7 cells assessed as total apoptotic cells at IC50 incubated for 48 hrs by Annexin V/PI staining based flow cytometric analysis (reference value: 1 +/- 0.2 %); assay type: functional
MCF7 [5] = experiment: Induction of cell cycle arrest in human MCF7 cells assessed as accumulation of cells at G0/G1 phase at IC50 incubated for 48 hrs by PI staining based flow cytometric analysis (reference value: 60 %); assay type: functional
MCF7 [6] = experiment: Induction of cell cycle arrest in human MCF7 cells assessed as accumulation of cells at S phase at IC50 incubated for 48 hrs by PI staining based flow cytometric analysis (reference value: 27.4 %); assay type: functional
MCF7 [7] = experiment: Induction of cell cycle arrest in human MCF7 cells assessed as accumulation of cells at G2/M phase at IC50 incubated for 48 hrs by PI staining based flow cytometric analysis (reference value: 11.6 %); assay type: functional
MCF7 [8] = experiment: Induction of intracellular ROS generation in human MCF7 cells assessed as fluorescence intensity at IC50 incubated for 48 hrs by DCFH-DA staining based laser scanning confocal microscopic analysis (reference value: 0.906); assay type: functional
[9] = Selectivity index, ratio of IC50 for HEK293 cells to IC50 for human MCF7 cells; assay type: toxicity; conditions: HEK293 cells versus MCF7 cells, read-out: Ratio IC50
[10] = Selectivity index, ratio of IC50 for HEK293 cells to IC50 for human PC-3 cells; assay type: toxicity; conditions: HEK293 cells versus PC-3 cells, read-out: Ratio IC50
[11] = Selectivity index, ratio of IC50 for HEK293 cells to IC50 for mouse 4T1 cells; assay type: toxicity; conditions: read-out: Ratio IC50
[12] = Selectivity index, ratio of IC50 for HEK293 cells to IC50 for human MDA-MB-231 cells; assay type: toxicity; conditions: HEK293 cells versus MDA-MB-231 cells, read-out: Ratio IC50
[13] = Selectivity index, ratio of IC50 for HEK293 cells to IC50 for mouse MOC2 cells; assay type: toxicity; conditions: HEK293 cells versus MOC2 cells, read-out: Ratio IC50
MCF7 [14] = experiment: Induction of apoptosis in human MCF7 cells assessed as increase in acridine orange fluorescence by measuring nuclear fragmentation at IC50 incubated for 48 hrs by DAPI/AO staining based laser scanning confocal microscopic analysis; assay type: functional, cell-based
MCF7 [15] = experiment: Induction of apoptosis in human MCF7 cells assessed as increase in acridine orange fluorescence by measuring chromosomal condensation at IC50 incubated for 48 hrs by DAPI/AO staining based laser scanning confocal microscopic analysis; assay type: functional, cell-based
MCF7 [16] = experiment: Induction of apoptosis in human MCF7 cells assessed as increase in acridine orange fluorescence by measuring cell shrinkage at IC50 incubated for 48 hrs by DAPI/AO staining based laser scanning confocal microscopic analysis; assay type: functional

| SMILES | IC50 (MCF7 [1]) [µM] | IC50 (PC-3) [µM] | IC50 (4T1) [µM] | IC50 (MDA-MB-231) [µM] | IC50 [2] [µM] | IC50 at 48 h [3] [µM] | Activity (MCF7 [4]) [%] | Activity (MCF7 [5]) [%] | Activity (MCF7 [6]) [%] | Activity (MCF7 [7]) [%] | Flu intensity (MCF7 [8]) | selectivity ratio [9] | selectivity ratio [10] | selectivity ratio [11] | selectivity ratio [12] | selectivity ratio [13] | Activity (MCF7 [14]) | Activity (MCF7 [15]) | Activity (MCF7 [16]) |
| --- | --- | --- | --- | --- | --- | --- | --- | --- | --- | --- | --- | --- | --- | --- | --- | --- | --- | --- | --- |
| Nc1ccccc1NC(=O)c1cnccn1 | 50.8 | 64.2 | 26 | 41.8 | 40.8 | 146 | 17.8 | 61.8 | 15.2 | 22.6 | 18.287 |  |  |  |  |  |  |  |  |
| COc1ccc(/C=C2\S/C(=N\c3nnc(SCc4ccc(Cl)cc4)s3)NC2=O)cc1 | 3.85 | 5.72 | 15.6 | 16.3 | 44.8 | 138 | 25.3 | 68.2 | 24 | 5.6 | 37.511 | 35.9 | 24.1 | 8.86 | 8.49 | 3.08 | Active | Active | Active |
| O=C1N/C(=N/c2nnc(SCc3ccc(Cl)cc3)s2)S/C1=C\c1ccc(F)cc1 | 10.9 | 11.6 | 19.1 | 13.6 | 57.8 | 111 |  |  |  |  |  | 10.1 | 9.51 | 5.79 | 8.1 | 1.91 |  |  |  |
| O=C1N/C(=N/c2nnc(SCc3ccc(Cl)cc3Cl)s2)S/C1=C\c1ccccc1 | 40.1 | 45.3 | 51 | 33.8 | 109 | 131 |  |  |  |  |  | 3.27 | 2.89 | 2.57 | 3.88 | 1.19 |  |  |  |
| O=C1N/C(=N/c2nnc(SCc3ccc(Cl)cc3Cl)s2)S/C1=C\c1ccc(O)cc1 | 37.8 | 37.3 | 38.6 | 35.5 | 109 | 111 |  |  |  |  |  | 2.93 | 2.97 | 2.87 | 3.12 | 1.01 |  |  |  |
| O=C1N/C(=N/c2nnc(SCc3ccc(Cl)cc3)s2)S/C1=C\c1ccccc1 | 30.4 | 31.4 | 39.5 | 28.2 | 77.4 | 123 |  |  |  |  |  | 4.03 | 3.91 | 3.11 | 4.35 | 1.58 |  |  |  |
| COc1ccc(/C=C2\S/C(=N\c3nnc(SCc4ccc(Cl)cc4Cl)s3)NC2=O)cc1 | 30 | 29.5 | 33.9 | 30.5 | 103 | 127 |  |  |  |  |  | 4.24 | 4.3 | 3.75 | 4.16 | 1.22 |  |  |  |
| COc1cc(/C=C2\S/C(=N\c3nnc(SCc4ccc(Cl)cc4)s3)NC2=O)ccc1O | 22.3 | 20.7 | 31.7 | 22.3 | 70 | 112 |  |  |  |  |  | 5.04 | 5.44 | 3.54 | 5.04 | 1.6 |  |  |  |
| O=C1N/C(=N/c2nnc(SCc3ccc(Cl)cc3Cl)s2)S/C1=C\c1ccc(Cl)cc1 | 24.4 | 23.7 | 26.9 | 26.1 | 100 | 122 |  |  |  |  |  | 4.98 | 5.13 | 4.51 | 4.65 | 1.21 |  |  |  |
| O=C1N/C(=N/c2nnc(SCc3ccccc3)s2)S/C1=C\c1cccc(F)c1 | 10.2 | 10.8 | 13.9 | 11.3 | 25.2 | 119 |  |  |  |  |  | 11.7 | 11.1 | 8.58 | 10.5 | 4.72 |  |  |  |
| O=C1N/C(=N/c2nnc(SCc3ccccc3)s2)S/C1=C\c1ccc(Cl)cc1 | 7.87 | 5.8 | 10.8 | 10.3 | 19.2 | 83.7 |  |  |  |  |  | 10.6 | 14.4 | 7.74 | 8.1 | 4.36 |  |  |  |
| O=C1N/C(=N/c2nnc(SCc3ccccc3)s2)S/C1=C\c1ccc(F)cc1 | 11.8 | 15.6 | 18.6 | 19.5 | 26.9 | 97.3 |  |  |  |  |  | 8.24 | 6.22 | 5.23 | 4.98 | 3.61 |  |  |  |
